Among the data in patent US8153821B2, “Compounds” (priority 2008, dated 2012) are melting point and DVS water uptake values, retold here.

Molecules are shown by their SMILES.

A short description of series [1]: Dynamic vapor sorption (DVS). Format: physicochemical. The note with it: 25° C. The protocol:
Sorption isotherms were determined using a SMS DVS Intrinsic moisture sorption analyzer controlled by SMS Analysis suite software. The sample temperature was maintained at 25° C. by the instrument controls. The humidity was controlled by mixing streams of dry and wet nitrogen, with a total flow rate of 200 mL/min. The relative humidity was measured by a calibrated Rotronic probe (dynamic range of 1.0-100% RH), located near the sample. The weight change, (mass relaxation) of the sample as a function of % RH was constantly monitored by the microbalance (accuracy ±0.005 mg).
Typically a 5-20 mg sample was placed on the tared mesh stainless steel basket under ambient conditions. The sample was loaded and unloaded at 40% RH and 25° C. (typical ambient conditions). A moisture sorption isotherm was performed as outlined below (2 scans giving 1 complete cycle). The standard isotherm was performed at 25° C. at 10% RH intervals over a 0-90% RH range.

As for `C(=C\[C@H]1CCNC1)/c1cncc(OC2CCOCC2)c1.O=C(O)C(=O)O`, the melting point (usually the temperature of the solid-liquid transition) lay within 180 to 181 °C.

For `C(=C\[C@H]1CCNC1)/c1cncc(OC2CCOCC2)c1.O=C(O)C[C@H](O)C(=O)O` [(R)-3-((E)-2-(pyrrolidin-3-yl)vinyl)-5-(tetrahydropyran-4-yloxy)pyridine mono-L-malate], the DVS water uptake result in series [1] is “minimum water uptake up to 80% R.H”.
